Where “and” joins values, the source holds several entries; their conditions need not be identical. Equal entries are not always repeated.
Experiments:
[1] = tested on: SH-SY-5Y human neuroblastoma cells; experiment: PHF-1 immunoreactivity (phospho-tau) in differentiated SH-SY-5Y cells with or without folate; assay type: cell-based
Procedure: Cultured cells were used to test individual agents and formulations. […] For immunocytochemistry to detect paired helical filament-1 (PHF-1) staining (as an index of tau phosphorylation), cells were fixed for 15 minutes with 4% paraformaldehyde in 0.1 M phosphate buffer and immunostained by sequential reaction with a mouse monoclonal PHF-1 antibody that was raised against tau from paired helical filaments isolated from the brains of Alzheimer disease patients. Incubation with PHF-1 antibody was followed by rhodamine conjugated goat anti-mouse IgG and visualization using methods known in the art. […] Cortical neurons were prepared from 12 day embryonic C57/B16 day old mice using known methods. Both the SH-SY-5Y cultures and the cortical neurons were processed for PHF-1 (paired helical filament 1) immunofluorescence using known methods ([…] et al., 1999 supra). Control cells cultured in the continued presence of normal folate levels were also processed. Phospho-tau was also examined using immunoblot analysis. […] The homogenates were sedimented at 13,000×g for 15 minutes and the resulting supernatant was electrophoresed, blotted, and the blot stained for PHF-1 using known methods.

murine cortical neurons = experiment: PHF-1 immunofluorescence in murine cortical neurons with or without folate; assay type: cell-based, mice; conditions: folate deficiency, two hours
Procedure: For immunocytochemistry to detect paired helical filament-1 (PHF-1) staining (as an index of tau phosphorylation), cells were fixed for 15 minutes with 4% paraformaldehyde in 0.1 M phosphate buffer and immunostained by sequential reaction with a mouse monoclonal PHF-1 antibody that was raised against tau from paired helical filaments isolated from the brains of Alzheimer disease patients. Incubation with PHF-1 antibody was followed by rhodamine conjugated goat anti-mouse IgG and visualization using methods known in the art. […] In these experiments, SH-SY-5Y cells were cultured in folate-deficient Dulbecco's Modified Essential Medium (DMEM; Sigma) in the absence of serum for two hours. Cortical neurons were prepared from 12 day embryonic C57/B16 day old mice using known methods. The cortical neurons were cultured for 3 days in neurobasal medium with B27 supplements ([…] et al., 1999, J. Biol. Chem., 274:30322-30327). […] Both the SH-SY-5Y cultures and the cortical neurons were processed for PHF-1 (paired helical filament 1) immunofluorescence using known methods ([…] et al., 1999 supra). Control cells cultured in the continued presence of normal folate levels were also processed. Phospho-tau was also examined using immunoblot analysis. […]

[2] = tested on: differentiated SH-SY-5Y cells; experiment: Intracellular ROS by DCFD fluorescence in differentiated SH-SY-5Y cells; assay type: cell-based, human
Procedure: Cultured cells were used to test individual agents and formulations. In general, SH-SY-5Y human neuroblastoma cells were cultured in DMEM (Cellgro) containing 10% fetal bovine serum in 5% CO2.
For treatments with Abeta, differentiated cultures were transferred to medium without serum and treated for two hours with 20 μM Abeta25-35 (Sigma Chemical Co., St. Louis, Mo.). […] Louis, Mo.). In experiments calling for treatment of cell cultures with N-acetyl cysteine (NAC; NALC), cultures were treated with 10 mM NAC (Sigma Chemical Co., St. Louis, Mo.) after the culture was grown for two hours in serum-free medium.
Intracellular reactive oxygen species (ROS) were monitored as described in Ekinci et al., 1999 (J. Biol. Chem., 274:30322-30327). Briefly, cells were incubated for 30 minutes with dichloro-fluorescein diacetate (DCFD; acetoxymethyl ester; Molecular Probes, Inc., Eugene, Oreg.), which is used to detect intracellular peroxide levels. Incubation was followed by rinsing of cultures in serum-free medium and immediate capture of images using UV optics. Images were captured under epifluorescent and phase-contrast illumination using a DAGE CCL-72 cooled CCD camera via a Scion LG-3 frame grabber operated by NIH Image (see the Internet at rsb.info.nih.gov/nih-image). Images were then stored as PICT files on a Macintosh Power PC 7100AV for subsequent analysis. At least 100 cells in randomly-selected fields from duplicate cultures derived from multiple experiments were scored for fluorescent intensity using NIH Image analysis software. Representative background areas devoid of cells were similarly analyzed and subtracted from cell values to yield net densitometric values. All fields for each individual assay were illuminated, captured, and processed under identical settings. Corresponding phase-contrast images were obtained. Cell aggregates were excluded from the assays; only individual cells were quantified. Values were exported to Excel for statistical analyses using Student's t test.
For monitoring of intracellular peroxide concentrations as an index of ROS, cultures received 10 μl/ml DFCD (2′7′-dichlorofluorescein diacetate; Kodak) for 20 minutes. Cultures were then visualized under fluorescein UV optics (perikaryon; Ekinci and Shea, 1999, supra).

Nc1nc2ncc(CNc3ccc(C(=O)N[C@@H](CCC(=O)O)C(=O)O)cc3)nc2c(=O)[nH]1 [folate, folic acid]
PHF-1 (phospho-tau) Mean ± SEM ([1]; +Folate 4 hr): 40.3 ± 3.9 | % increase in phospho-tau compared to control ([1]; +Folate 24 hr): −5.5% | PHF-1 (phospho-tau) Mean ± SEM ([1]; +Folate 24 hr): 38.1 ± 3.1 | PHF-1 levels after cultures received medium containing folate ([1]; after folate deprivation for 24 hours): returned to control levels within four hours | average increase in PHF-1 immunofluorescence ([1]; folate deficiency, two hours): 3.5 fold | average increase in phospho-tau ([1]; folate deprivation for 24 hours): 29% | accumulation of phospho-tau after restoration of folate ([1]; following folate deprivation): reversed within two hours | total tau levels (monoclonal antibody 5E2) ([1]; two hour deprivation of folate): not altered | % increase in phospho-tau compared to control ([1]; −Folate 4 hr): 29% | PHF-1 (phospho-tau) Mean ± SEM ([1]; −Folate 4 hr): 52.0 ± 3.4 | % increase in phospho-tau compared to control ([1]; −Folate 24 hr): −1.5% | PHF-1 (phospho-tau) Mean ± SEM ([1]; −Folate 24 hr): 39.7 ± 2.6 | average increase in PHF-1 immunofluorescence (murine cortical neurons): 1.5 fold | Abeta-induced increase in ROS ([2]; 5×folate (20 mg/l), 20 μM Abeta two hours): prevented | ROS in otherwise untreated cells ([2]; 10×folate compared to 1-5×folate): marginal decrease in ROS | ROS Mean ± SEM ([2]; folate (control), two hours): 7.6 ± 0.3 | increase in ROS ([2]; folate deprivation, compared to cells cultured in the presence of folate (Example 6)): 64±5% | ROS Mean ± SEM ([2]; no folate, two hours): 10.5 ± 0.5 | ROS % increase vs. control ([2]; no folate, two hours, vs cultures receiving folate): 38±4% and 38% | ROS ([2]; single agent, control cells and cells exposed to Abeta, two hours): reduced ROS

From patent publication US8173618B2, “Formulations for reducing neuronal degeneration” (University of Massachusetts, priority 2003, dated 2012)
